From patent US7732401B2, “Inhibitor of TGF-β activation reaction” (Riken, priority 2007, dated 2010)

System: TGF-β activation
Assay: Inventors' additional tests of TGF-β activation with synthetic KRFK and LSKL peptides
Text: Moreover, the group of Murphy-Ullrich at the University of Alabama, U.S.A. investigated the adherent-type TGF-β activation reaction by a glycoprotein, thrombospondin 1, and reported that TGF-β is activated by binding of KRFK sequence corresponding to amino acid numbers 412-415 of thrombospondin 1 to LSKL sequence corresponding to amino acid numbers 54-57 of LAP, and that the synthetic KRFK peptide activates TGF-β, whereas the synthetic LSKL peptide inhibits the TGF-β activation reaction (Schultz-Cherry et al., J. Biol. Chem. 270: 7304-7310, 1995; Crawford et al., Cell 93: 1159-1170, 1998; Ribeiro et al., J. Biol. Chem. 274: 13586-13593, 1999; Murphy-Ullrich and Poczatek Cytokine & Growth Factor Reviews 11: 59-69, 2000). The LSKL sequence derived from amino acid numbers 54-57 of the aforementioned LAP overlaps with the plasmin cleavage site K56-L57 identified by the present inventors. By binding to and cutting this portion, respectively, thrombospondin 1 and proteases may inhibit a noncovalent bond between this portion and active TGF-β molecule, resulting in release of the active TGF-β molecule from a latent complex (namely the TGF-β activation reaction). […] Murphy-Ullrich et al. indicated an involvement of a thrombospondin 1-dependent adherent-type TGF-β activation reaction in the pathogenesis of lung or pancreatic diseases, but not in the pathogenesis of liver diseases.

Substance: LSKL [LSKL peptide]
- inhibition of TGF-β activation: could not reproduce
